pIC50: −log10 of the molar value.
Legend:
Rat PMN 5-lipoxygenase = molecular target: T1, Rat PMN 5-lipoxygenase (Rattus norvegicus, UniProt P12527); assay: Protocol for detecting inhibitors of the lipoxygenase pathway (5-HETE formation in rat neutrophils); assay type: cell-based; conditions: suspension of rat neutrophils, 3 minutes at 30°C with [14C]-arachidonic acid and Calcium Ionophore A23187; net 5-HETE produced; read-out: Rat PMN 5-lipoxygenase inhibition (I50)
T1 construct: endogenous in cells; host or cells: rat neutrophils (PMN)
T1 sequence (P12527 1-673): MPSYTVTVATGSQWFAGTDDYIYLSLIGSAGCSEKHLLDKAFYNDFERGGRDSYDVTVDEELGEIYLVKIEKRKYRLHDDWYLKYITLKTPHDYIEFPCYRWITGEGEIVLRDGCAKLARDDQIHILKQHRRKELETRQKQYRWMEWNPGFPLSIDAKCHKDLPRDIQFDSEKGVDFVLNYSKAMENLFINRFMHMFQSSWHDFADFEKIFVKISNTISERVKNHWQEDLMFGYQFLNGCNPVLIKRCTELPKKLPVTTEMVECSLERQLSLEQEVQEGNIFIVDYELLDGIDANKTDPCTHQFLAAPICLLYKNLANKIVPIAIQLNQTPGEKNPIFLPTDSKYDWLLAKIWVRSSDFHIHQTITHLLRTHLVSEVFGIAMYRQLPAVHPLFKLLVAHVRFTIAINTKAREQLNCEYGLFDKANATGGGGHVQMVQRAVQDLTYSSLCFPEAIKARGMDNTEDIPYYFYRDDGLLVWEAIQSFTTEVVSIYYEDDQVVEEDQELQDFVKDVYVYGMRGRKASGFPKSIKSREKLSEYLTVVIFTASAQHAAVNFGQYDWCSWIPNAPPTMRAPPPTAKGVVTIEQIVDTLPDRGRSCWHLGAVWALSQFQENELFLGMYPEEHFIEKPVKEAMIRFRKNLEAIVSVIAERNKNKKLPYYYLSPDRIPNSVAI
Method: The following protocol describes an assay to detect inhibitors of the lipoxygenase pathway. Such inhibitors are believed to be capable of modulating the biosynthesis of the leukotrienes, a property believed to be useful in treating asthma and inflammatory disease states.
Protocol for Detecting Inhibitors of the Lipoxygenase Pathway
A suspension of rat neutrophils in buffer is incubated for 3 minutes at 30°C with [^14]-arachidonic acid (AA) and Calcium Ionophore A23'187. Citric acid (2M) is used to quench the reaction. Following the addition of a trace amount of (^3H)-5-HETE together with an excess of unlabeled 5-HETE to each tube, the mixture is extracted with chloroform/methanol. The organic layer is washed with dilute acid and an aliquot is transferred to glass tubes and dried. The residue is dissolved in a small volume of chloroform and an aliquot is spotted on silica gel TLC sheets, which are developed with an ethyl acetate/isooctane/water/acetic acid solvent system. The 5-HETE spots are visualized with iodine, cut out and placed in scintillation vials for counting. After adjusting for the extraction efficiency, the amount (pmole) of [^14C]-5-HETE in each of the tubes is quantitated by substracting the net pmoles of 5-HETE in the tubes containing buffer alone (blank) from the pmoles of 5-HETE in the tubes containing […]. The ability of the test compounds to modulate the activity of this enzyme is determined by a decrease or increase in the net amount of 5-HETE produced.

Phospholipase A2 (PLA2) = molecular target: T2, Phospholipase A2 (PLA2) (Rattus norvegicus, UniProt P14423); assay: In vitro assay for inhibitors of Phospholipase A2 (PLA2); assay type: biochemical; conditions: PLA2 from aggregated purified rat platelets; 14C-phosphatidylcholine substrate; pH 7.2, 37°C, 30 minutes; read-out: (PLA2) Phospholipase A2 inhibition (I50)
T2 construct: obtained by aggregation of purified rat platelets; from tissue; host or cells: rat platelets (material obtained on aggregation)
T2 sequence (P14423 22-146): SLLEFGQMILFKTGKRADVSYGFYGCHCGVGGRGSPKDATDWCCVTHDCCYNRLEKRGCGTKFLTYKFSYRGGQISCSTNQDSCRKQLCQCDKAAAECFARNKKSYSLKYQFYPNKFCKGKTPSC
From the text: (§1) Two assays have been developed to test the ability of the invented compounds on the activity of the phospholipases. In one protocol, a procedure is described for testing the inhibitory effects of these compounds on Phospholipase C (PLC), while the other protocol describes a means for testing the inhibitory effect of these compounds on Phospholipase A2 (P^LA2).
Protocol for In Vitro Assay for Inhibitors of Phospholipase A2 Assayed at oH 7.0 (PLA2)
The PLA2 employed in this screen is obtained by aggregation of purified rat platelets. In the enzyme assay phosphatidylcholine having ^14C-labeled palmitate residues at Rl and R2 is employed as substrate. PLA2 acts by cleaving the R2 fatty acid ester bond yielding free fatty acid and lysophosphatidyl choline as follows: [drawing 22]
Following completion of the reaction, the assay medium is acidified and extracted with hexane, which takes up unreacted substrate and free fatty acid product. The hexane extract is passed over a short silica gel column which retains 99% of the phosphatidyl choline. The ^14C-labeled palmitic acid is not retained (90% recovery in eluate) and is collected directly in scintillation counting vials. The released palmitic acid is conveniently quantitated by liquid scintillation spectrometry.
The compounds were tested at 100 uM in a buffer containing 0.3 mM unlabeled phosphatidylcholine (PC), 20-30,000 cpm of ^14C [PC], 100 mM NaCl, 1 mM CaCl2 and 50 mM Tris-HCL adjusted to pH 7.2 with 1 N NaOH. […] The reaction was initiated by addition of the enzyme and it was terminated 30 minutes later by the addition of 100 ml of 1 N HCL.
Following acidification, the complex was extracted with 2 ml of 2-propanol and 2 ml of hexane, vortexed, and allowed to stand until the phases separated. Free fatty acids (FFA) and some unreacted substrate were taken up in the isopropanol-saturated hexane. The hexane phase of the extraction mixture was transferred to a short silica gel column which retained unreacted PC but not the FFA. The column effluent was collected directly in scintillation vials. The columns were washed once with an additional 2 ml of hexane. The radiolabeled FFA were ^quantitated by liquid scintillation spectrometry.

Phospholipase C (PLC) = assay: In vitro assay for inhibitors of Phospholipase C (PLC); assay type: biochemical; conditions: PLC from aggregated purified rat platelets (CaCl2, ADP); 3H-phosphatidylinositol substrate; pH 9.0, 37°C, 10 minutes; read-out: (PLC) Phospholipase C inhibition (I50)
From the text: as §1
Protocol for In Vitro Assay for Inhibitors of
The PLC employed in this screen is obtained by aggregation of purified rat platelets in the presence of CaCl2 and ADP. In the enzyme assay, phosphatidylinositol having ^3H-labeled arachidonate residues at R2 is employed as substrate. PLC acts by cleaving the phosphate ester bond yielding diglyceride as follows: [drawing 21] ^3H-Phosphatidylinosit-tol ^3H-diglyceride Inositol (cont.)
Following completion of the reaction, the assay medium is acidified and extracted with hexane which takes up unreacted substrate and diglvceride. The hexane extract is passed over a short silica gel column which retains 99% of the phosphatidylinositol. […] The diglyceride is conveniently quantitated by liquid scintillation spectrometry. […]
Following acidification, the samples were extracted with 2 ml of isopropyl alcohol and 2 ml of hexane, vortexed and allowed to stand until the phrases separate. […] The radiolabeled diglycerides were quantitated by liquid scintillation spectrometry.

With `CCCCCC(O)C=CC=Cc1ccc(OCc2ccccc2)cc1` (stereo not drawn) [Compound 32] as the compound, how does the pIC50 (Rat PMN 5-lipoxygenase) read?
Its pIC50 is 5.15.

With `CC(O)C=Cc1ccc(OCc2ccccc2)cc1` [Compound 21, 4-(D-BenzyloxyDhenyl)-3-buten-2-ol] as the compound, how does the pIC50 (Rat PMN 5-lipoxygenase) read?
The pIC50 was 5.82.

And the pIC50 (Phospholipase A2 (PLA2))?
Its pIC50 is 3.92.

With `CN(C)CCC(O)C=Cc1ccc(OCc2ccccc2)cc1` (stereo not drawn) [Compound 37] as the compound, how does the pIC50 (Phospholipase C (PLC)) read?
The pIC50 was 4.62.

What does the source list for `CC(O)C=Cc1ccc(OC(c2ccccc2)c2ccccc2)cc1` (stereo not drawn) [Compound 39]?
pIC50 (Rat PMN 5-lipoxygenase): 5.46; pIC50 (Phospholipase A2 (PLA2)): 4.51

How did the pIC50 (Rat PMN 5-lipoxygenase) turn out when `CC(C)(C)C(O)C=Cc1ccc(OCc2ccccc2)cc1OCc1ccccc1` (stereo not drawn) [Compound 25] was run?
The pIC50 was 5.96.

And the pIC50 (Phospholipase A2 (PLA2))?
Its pIC50 is 4.10.

`OCC=Cc1ccc(OCc2ccccc2)cc1OCc1ccccc1` [Compound 42] was tested. Which pIC50 (Rat PMN 5-lipoxygenase) did it give?
Its pIC50 is 5.85.

How did the pIC50 (Rat PMN 5-lipoxygenase) turn out when `CC(C)(C)C(O)C=CC=Cc1ccc(OCc2ccccc2)cc1` (stereo not drawn) [Compound 34] was run?
The pIC50 was 5.35.

With `CC(C)(C)C(O)C=Cc1ccc(OCc2ccccc2)c(OCc2ccccc2)c1` (stereo not drawn) [Compound 29] as the compound, how does the pIC50 (Rat PMN 5-lipoxygenase) read?
The pIC50 was 5.64.

With `CC(O)C=Cc1ccc(OCc2ccccc2)c(OCc2ccccc2)c1` (stereo not drawn) [Compound 28] as the compound, how does the pIC50 (Rat PMN 5-lipoxygenase) read?
Its pIC50 is 5.70.

How did the pIC50 (Rat PMN 5-lipoxygenase) turn out when `CCCCCC(O)C=Cc1ccc(OCc2ccccc2)cc1OCc1ccccc1` (stereo not drawn) [Compound 23] was run?
The pIC50 was 5.00.

With `CC(C)(C)CC(O)C=Cc1ccc(OCc2ccccc2)cc1OCc1ccccc1` (stereo not drawn) [Compound 24] as the compound, how does the pIC50 (Rat PMN 5-lipoxygenase) read?
Its pIC50 is 6.52.

What about the pIC50 (Phospholipase A2 (PLA2)) of the same compound?
Its pIC50 is 4.00.

How did the pIC50 (Phospholipase A2 (PLA2)) turn out when `CC1CCCC(=Cc2ccc(OCc3ccccc3)cc2)C1O` (stereo not drawn) [Compound 40] was run?
Its pIC50 is 3.77.

How did the pIC50 (Rat PMN 5-lipoxygenase) turn out when `CC(O)C=Cc1ccc(OCc2ccccc2)cc1OCc1ccccc1` (stereo not drawn) [Compound 22] was run?
The pIC50 was 6.00.

And the pIC50 (Phospholipase A2 (PLA2))?
The pIC50 was 4.05.
